Assay results: patent US7754709B2 (Solvay Pharmaceuticals BV, priority 2003, dated 2010)
Several values for one entry are separate records, joined by “and”; a condition that tells them apart may be missing. Equal values may be shown once.

Columns and labels:
Type in all cases: cell-based
[1] = molecular target: T1, 17β-hydroxysteroid dehydrogenase type 1 (Homo sapiens, UniProt P14061); assay: Inhibition of 17β-HSD type 1 in MCF-7 cells stably expressing the isoenzyme (HPLC, tritium labeled estrone); details: 2 nM estrone; for inhibition at 1 µM: MCF7, 1 μM compound; for inhibition at 1 µM / inhibition at 10 µM: read-out: % Inhibition of the 17β-HSD enzyme type 1 (HSD1); for inhibition at 10 µM: MCF7, 10 μM compound
T1 construct: expressed in transfected cells; host or cells: MCF-7
T1 sequence (P14061 1-328): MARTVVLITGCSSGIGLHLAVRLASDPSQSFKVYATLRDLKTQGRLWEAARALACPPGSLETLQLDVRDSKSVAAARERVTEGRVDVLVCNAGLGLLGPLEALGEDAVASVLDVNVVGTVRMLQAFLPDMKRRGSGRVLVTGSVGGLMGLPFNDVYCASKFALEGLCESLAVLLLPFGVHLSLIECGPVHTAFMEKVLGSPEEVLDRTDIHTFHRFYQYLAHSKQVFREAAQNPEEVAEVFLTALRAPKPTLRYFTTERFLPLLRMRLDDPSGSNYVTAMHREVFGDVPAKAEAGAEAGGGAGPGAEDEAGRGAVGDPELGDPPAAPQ
Description: (§1) Biological Testing Materials and Methods 1. Inhibition of the 17β-hydroxysteroid dehydrogenase type 1, type 2 and type 3 enzyme
(§2) The compounds were screened in respect of 17β-HSD enzyme activity in vitro on established M CF-7 cell lines, each stably expressing one of the respective 17β-HSD isoenzymes. The interconversion of substrate by each isoenzyme and the 17β-HSD inhibiting activity of chemical compounds in these cell lines were detected by HPLC system.
(§3) Varying amounts of the test compounds were incubated in the growth medium of the 17β-HSD expressing cells together tritium labeled substrate (2 nM estrone for 17β-HSD type 1; 2 nM estradiol for 17β-HSD type 2; and 2 nM androstenedione for 17β-HSD type 3). The medium samples were removed after exact incubation time and the reaction is stopped by trichloroacetic acid (TCA). The samples were analyzed by HPLC-coupled flow scintillation analysis.
(§4) For each enzyme type, the HSD-inhibiting activity of an individual test compound was calculated by comparing the conversion of a control sample without any test compound (referred to as “Negative Control”) to the (reduced) conversion of the test sample containing the particular compound to be tested (referred to as “Test Sample”).
(§5) Two concentrations of each compound were used. The number of the compound refers to the numbers indicated in the Experimental Section.

[2] = molecular target: T2, 17β-hydroxysteroid dehydrogenase type 2 (Homo sapiens, UniProt P37059); assay: Inhibition of 17β-HSD type 2 in MCF-7 cells stably expressing the isoenzyme (HPLC, tritium labeled estradiol); details: 2 nM estradiol, read-out: % Inhibition of the 17β-HSD enzyme type 2 (HSD2); for inhibition at 1 µM: MCF7, 1 μM compound; for inhibition at 10 µM: MCF7, 10 μM compound
T2 construct: expressed in transfected cells; host or cells: MCF-7
T2 sequence (P37059 1-387): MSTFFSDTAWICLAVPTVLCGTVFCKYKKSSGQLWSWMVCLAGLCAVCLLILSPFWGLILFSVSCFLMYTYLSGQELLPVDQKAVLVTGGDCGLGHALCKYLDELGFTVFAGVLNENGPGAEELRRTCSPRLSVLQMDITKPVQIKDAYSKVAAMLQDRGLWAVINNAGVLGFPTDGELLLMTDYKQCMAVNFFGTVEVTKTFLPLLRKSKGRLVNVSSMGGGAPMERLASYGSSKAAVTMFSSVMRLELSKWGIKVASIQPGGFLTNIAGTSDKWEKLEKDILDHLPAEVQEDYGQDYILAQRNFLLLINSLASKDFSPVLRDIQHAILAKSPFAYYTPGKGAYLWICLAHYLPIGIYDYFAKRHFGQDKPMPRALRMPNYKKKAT
Description: as §1, §2, §3, §4, §5

[3] = molecular target: T3, 17β-hydroxysteroid dehydrogenase type 3 (Homo sapiens, UniProt P37058); assay: Inhibition of 17β-HSD type 3 in MCF-7 cells stably expressing the isoenzyme (HPLC, tritium labeled androstenedione); details: 2 nM androstenedione; for inhibition at 1 µM: MCF7, 1 μM compound; for inhibition at 1 µM / inhibition at 10 µM: read-out: % Inhibition of the 17β-HSD enzyme type 3 (HSD3); for inhibition at 10 µM: MCF7, 10 μM compound
T3 construct: expressed in transfected cells; host or cells: MCF-7
T3 sequence (P37058 1-310): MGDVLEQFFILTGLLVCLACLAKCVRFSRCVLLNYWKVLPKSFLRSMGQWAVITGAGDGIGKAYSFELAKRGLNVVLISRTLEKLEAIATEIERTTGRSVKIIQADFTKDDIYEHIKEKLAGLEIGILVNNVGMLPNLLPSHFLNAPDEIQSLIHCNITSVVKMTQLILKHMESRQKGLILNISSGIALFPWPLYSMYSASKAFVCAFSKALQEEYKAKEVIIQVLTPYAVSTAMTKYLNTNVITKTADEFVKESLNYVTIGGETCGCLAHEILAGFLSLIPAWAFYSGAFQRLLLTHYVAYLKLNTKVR
Description: as §1, §2, §3, §4, §5

SMILES | inhibition at 1 µM [1] [%] | inhibition at 10 µM [1] [%] | inhibition at 1 µM [2] [%] | inhibition at 10 µM [2] [%] | inhibition at 1 µM [3] [%] | inhibition at 10 µM [3] [%] | % Inhibition of the 17β-HSD enzyme type 1 (HSD1) ([1]; 1 μM compound) [%] | % Inhibition of the 17β-HSD enzyme type 1 (HSD1) ([1]; 10 μM compound) [%] | % Inhibition of the 17β-HSD enzyme type 3 (HSD3) ([3]; 1 μM compound) | % Inhibition of the 17β-HSD enzyme type 3 (HSD3) ([3]; 10 μM compound)
CCOC(=O)C1CCc2nc3sc4c(c3c(=O)n2CC1)CCCC4=O (stereo not drawn) [Compound 19, 4,13-Dioxo-1,2,3,4,7,8,9,10,11,13-decahydro-[1]benzothieno[2′,3′: 4,5]pyrimido[1,2-a]azepine-9-carboxylic acid ethyl ester] | 10.6 | 33.1 | 0.6 | 4.4 | 13 | 10.5 |  |  |  | 
CC1CCc2c(sc3nc4n(c(=O)c23)CCCCC4)C1=O (stereo not drawn) [Compound 28, 2,3,8,9,10,11-Hexahydro-3-methyl-[1]benzothieno[2′,3′: 4,5]pyrimido[1,2-a]azepin-4,13(1H,7H)-dione] | 14.3 | 15.3 | 18.2 | 18.7 | 7.8 | 9.5 |  |  |  | 
O=c1c2c3c(sc2nc2n1CCCCC2)C(Sc1ccccc1)=C(CO)CC3 [Compound 6a, 1,2,7,8,9,10,11,13-Octahydro-13-oxo-4-(phenylthio)[1]benzothieno[2′,3′:4,5]-pyrimido-[1,2-a]azepine-3-hydroxymethyl] | 51.8 | 100 | 11.6 | 42.5 | 45.9 | 48.9 |  |  |  | 
O=c1c2c3c(sc2nc2n1CCCCC2)CCCC3 [Compound 2a, 2,3,4,7,8,9,10,11-Octahydro[1]benzothieno[2′,3′:4,5]pyrimido-[1,2-a]azepin-13(1H)-one] | 10 | 45.9 | 16.2 | 23.4 | 39 | 24.9 |  |  |  | 
CCc1nc2sc3c(c2c(=O)n1C)CCCC3 [Compound 2i, 5,6,7,8-Tetrahydro-2-ethyl-3-methyl[1]benzothieno[2,3-d]pyrimidin-4(3H)-one] | 12.7 | 18.5 | 20.6 | 29.4 | 4.4 | 9.9 |  |  |  | 
O=C1CCCc2c1sc1nc3n(c(=O)c21)CCC3 [Compound 3f, 2,3,8,9-Tetrahydro[1]benzothieno[2,3-d]pyrrolo[1,2-a]pyrimidine-6,10(1H,7H)-dione] | 8.7 | 22 | 31.1 | 21.8 | 43.9 | 40.2 |  |  |  | 
O=C1CCCc2c1sc1nc3n(c(=O)c21)CCCCCC3 [Compound 3d, 1,2,7,8,9,10,11,12-octahydro[1]benzothieno[2′,3′:4,5]pyrimido-[1,2-a]azocin-4, 14(3H)-dione] | 14.3 | 42.9 | 14.1 | 11.1 | 15.3 |  | 18.2 | 37.6 | 22.3% | 16.7% and 8.1%
O=C1CCc2c1sc1nc3n(c(=O)c21)CCCCC3 [Compound 3b, 1,2,6,7,8,9,10-heptahydrocyclopenta[4′,5′]thieno[2′,3′:4,5]pyrimido[1,2-a]-azepin-3,12-dione] | 13.5 | 20.7 | 14.1 | 25.4 | 0.3 | 13.7 |  |  |  | 
CCSC1=C(C=O)CCc2c1sc1nc3n(c(=O)c21)CCCCC3 [Compound 5b, 1,2,7,8,9,10,11,13-Octahydro-13-oxo-4-(ethylthio)[1]benzothieno[2′,3′:4,5]-pyrimido-[1,2-a]azepine-3-carboxaldehyde] | 66.1 | 100 | 19.7 | 25.2 | 43.4 | 100 |  |  |  | 
CCOC(=O)C1CCc2nc3sc4c(c3c(=O)n2CC1)CCC(C=O)=C4Cl (stereo not drawn) [Compound 21, 4-Chloro-3-formyl-1,2,7,8,9,10,11,13-octahydro-13-oxo-[1]benzothieno[2′,3′: 4,5]pyrimido[1,2-a]azepine-9-carboxylic acid ethyl ester] | 10.9 | 33.5 | 13.1 | 32.9 | 20 | 87.3 |  |  |  | 
O=CC1=C(Cl)c2sc3nc4n(c(=O)c3c2CC1)CCCCCC4 [Compound 4b, 4-Chloro-1,2,3,7,8,9, 10,11,12-octahydro[1]benzothieno[2′,3′:4,5]pyrimido-[1,2-a]-azocin-14-one-4-carboxyaldehyde] | 36.9 | 82.1 | 3.5 | 1.5 |  | 42.1 | 31.2 | 80.1 | 5.3% and 14.3% | 43.9%
O=c1c2c3c(sc2nc2ccccn12)CCCC3 [Compound 25, 1,2,3,4-Tetrahydro-12H-[1]benzothieno[2,3-d]pyrido[1,2-a]pyrimidin-12-one] | 6.2 | 8.7 | 14 | 33.6 | -3.2 | 7.9 |  |  |  | 
